# Measurements as given in ChEMBL document CHEMBL3885861, “Open TG-GATES”.
# Organism: Rattus norvegicus
# Assay: Open TG-GATES - Regimen: Single
# Assay type: toxicity, organism-based, Sprague-Dawley
# Design: regimen Single, gender Male, age 6 weeks
# Conditions: in vivo, ip, 0.01 mg/kg, route intraperitoneal injection, dose 10 ug/Kg, dose level High; for APTT / Bas / Eos / Fbg / Hb / Ht / Lym / MCH / MCHC / MCV / Mono / Neu / PT / Plat / RBC / Ret / WBC: tissue Blood; for KIDNEY_L / KIDNEY_R / KIDNEY_TOTAL: tissue Kidney; for LIVER: tissue Liver; for A/G / ALP / ALT / AST / BUN / CRE / Ca / Cl / DBIL / GLC / IP / K / LDH / Na / PL / RALB / TBIL / TC / TG / TP / gamma-GTP: tissue Plasma
substance,measurement,setting,value
H-KGDRLS-OH [TNF-ALPHA],TERMINAL_BW,3 h,199.5 g
same,APTT,3 h,15.7 s
same,Bas,3 h,0.2%
same,Eos,3 h,0.4%
same,Fbg,3 h,279.2 mg/dL
same,Hb,3 h,13.2 g/dL
same,Ht,3 h,40.1%
same,Lym,3 h,75%
same,MCH,3 h,21.5 pg
same,MCHC,3 h,32.8%
same,MCV,3 h,65.3 fL
same,Mono,3 h,4.4%
same,Neu,3 h,18.8%
same,PT,3 h,15.4 s
same,Plat,3 h,115.5 x10_4/uL
same,RBC,3 h,615.2 x10_4/ul
same,Ret,3 h,9.2%
same,WBC,3 h,82.2 x10_2/uL
same,KIDNEY_L,3 h,0.9 g
same,KIDNEY_R,3 h,0.9 g
same,KIDNEY_TOTAL,3 h,1.7 g
same,LIVER,3 h,8.8 g
same,A/G,3 h,0.9
same,ALP,3 h,1307.2 IU/L
same,ALT,3 h,43.6 IU/L
same,AST,3 h,79.2 IU/L
same,BUN,3 h,10.4 mg/dL
same,CRE,3 h,0.2 mg/dL
same,Ca,3 h,10.7 mg/dL
same,Cl,3 h,105.8 meq/L
same,DBIL,3 h,0.01 mg/dL
same,GLC,3 h,167 mg/dL
same,IP,3 h,9.8 mg/dL
same,K,3 h,4 meq/L
same,LDH,3 h,71 IU/L
same,Na,3 h,142.4 meq/L
same,PL,3 h,141.2 mg/dL
same,RALB,3 h,2.4 g/dL
same,TBIL,3 h,0.062 mg/dL
same,TC,3 h,77.8 mg/dL
same,TG,3 h,50.4 mg/dL
same,TP,3 h,5.2 g/dL
same,gamma-GTP,3 h,1.2 IU/L
same,TERMINAL_BW,6 h,194.4 g
same,APTT,6 h,18.1 s
same,Bas,6 h,0%
same,Eos,6 h,0.2%
same,Fbg,6 h,349.4 mg/dL
same,Hb,6 h,13.2 g/dL
same,Ht,6 h,40.3%
same,Lym,6 h,62.4%
same,MCH,6 h,21 pg
same,MCHC,6 h,32.9%
same,MCV,6 h,63.8 fL
same,Mono,6 h,2.6%
same,Neu,6 h,34.2%
same,PT,6 h,15 s
same,Plat,6 h,106.9 x10_4/uL
same,RBC,6 h,632.2 x10_4/ul
same,Ret,6 h,7.9%
same,WBC,6 h,58.5 x10_2/uL
same,KIDNEY_L,6 h,0.9 g
same,KIDNEY_R,6 h,0.9 g
same,KIDNEY_TOTAL,6 h,1.8 g
same,LIVER,6 h,8.5 g
same,A/G,6 h,0.8
same,ALP,6 h,1422.6 IU/L
same,ALT,6 h,37.6 IU/L
same,AST,6 h,73 IU/L
same,BUN,6 h,8.6 mg/dL
same,CRE,6 h,0.2 mg/dL
same,Ca,6 h,10.8 mg/dL
same,Cl,6 h,105.4 meq/L
same,DBIL,6 h,0.008 mg/dL
same,GLC,6 h,170.8 mg/dL
same,IP,6 h,9.8 mg/dL
same,K,6 h,3.8 meq/L
same,LDH,6 h,67.2 IU/L
same,Na,6 h,143.2 meq/L
same,PL,6 h,162.2 mg/dL
same,RALB,6 h,2.5 g/dL
same,TBIL,6 h,0.06 mg/dL
same,TC,6 h,91.8 mg/dL
same,TG,6 h,40.2 mg/dL
same,TP,6 h,5.4 g/dL
same,gamma-GTP,6 h,1.4 IU/L
same,TERMINAL_BW,9 h,194.6 g
same,APTT,9 h,19.4 s
same,Bas,9 h,0%
same,Eos,9 h,0.6%
same,Fbg,9 h,371 mg/dL
same,Hb,9 h,13.4 g/dL
same,Ht,9 h,40.6%
same,Lym,9 h,69.8%
same,MCH,9 h,21.4 pg
same,MCHC,9 h,32.9%
same,MCV,9 h,64.8 fL
same,Mono,9 h,1.8%
same,Neu,9 h,26.8%
same,PT,9 h,15.3 s
same,Plat,9 h,105.5 x10_4/uL
same,RBC,9 h,627.6 x10_4/ul
same,Ret,9 h,8.3%
same,WBC,9 h,66.7 x10_2/uL
same,KIDNEY_L,9 h,0.9 g
same,KIDNEY_R,9 h,0.9 g
same,KIDNEY_TOTAL,9 h,1.7 g
same,LIVER,9 h,7.9 g
same,A/G,9 h,0.8
same,ALP,9 h,1174.4 IU/L
same,ALT,9 h,32.6 IU/L
same,AST,9 h,62.8 IU/L
same,BUN,9 h,7.2 mg/dL
same,CRE,9 h,0.2 mg/dL
same,Ca,9 h,10.8 mg/dL
same,Cl,9 h,104.4 meq/L
same,DBIL,9 h,0.004 mg/dL
same,GLC,9 h,167.2 mg/dL
same,IP,9 h,10.2 mg/dL
same,K,9 h,3.9 meq/L
same,LDH,9 h,55.2 IU/L
same,Na,9 h,141.6 meq/L
same,PL,9 h,159.2 mg/dL
same,RALB,9 h,2.5 g/dL
same,TBIL,9 h,0.064 mg/dL
same,TC,9 h,96.6 mg/dL
same,TG,9 h,22.2 mg/dL
same,TP,9 h,5.5 g/dL
same,gamma-GTP,9 h,1.4 IU/L
same,TERMINAL_BW,24 h,211.6 g
same,APTT,24 h,15.6 s
same,Bas,24 h,0.2%
same,Eos,24 h,0.8%
same,Fbg,24 h,323.4 mg/dL
same,Hb,24 h,13.1 g/dL
same,Ht,24 h,40.2%
same,Lym,24 h,80.4%
same,MCH,24 h,21.5 pg
same,MCHC,24 h,32.6%
same,MCV,24 h,65.8 fL
same,Mono,24 h,3%
same,Neu,24 h,15%
same,PT,24 h,15.5 s
same,Plat,24 h,116.4 x10_4/uL
same,RBC,24 h,610.2 x10_4/ul
same,Ret,24 h,8.5%
same,WBC,24 h,77.3 x10_2/uL
same,KIDNEY_L,24 h,1 g
same,KIDNEY_R,24 h,0.9 g
same,KIDNEY_TOTAL,24 h,1.9 g
same,LIVER,24 h,9.8 g
same,A/G,24 h,0.8
same,ALP,24 h,1565.6 IU/L
same,ALT,24 h,47.8 IU/L
same,AST,24 h,69.6 IU/L
same,BUN,24 h,15.4 mg/dL
same,CRE,24 h,0.2 mg/dL
same,Ca,24 h,11.1 mg/dL
same,Cl,24 h,106.6 meq/L
same,DBIL,24 h,0.012 mg/dL
same,GLC,24 h,190 mg/dL
same,IP,24 h,8.9 mg/dL
same,K,24 h,4.4 meq/L
same,LDH,24 h,93.6 IU/L
same,Na,24 h,142.2 meq/L
same,PL,24 h,156 mg/dL
same,RALB,24 h,2.6 g/dL
same,TBIL,24 h,0.042 mg/dL
same,TC,24 h,83.6 mg/dL
same,TG,24 h,76.2 mg/dL
same,TP,24 h,5.7 g/dL
same,gamma-GTP,24 h,1 IU/L
